Test results as given in the supplement of paper PMC10307832.

Experiments:
Test in all cases: relative viability (nuclei count vs DMSO), 5 days (fraction); higher = more cells survive
[1] = tested on: 201T
Procedure, shortened: (§1)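 Medians of duplicate plates are given as relative viability. That measure is the nuclei count in treated wells divided by the count in vehicle wells. Counts were taken on 4× images of lung cancer cell lines in 1536-well plates, 5 days after pin-tool dosing the day after seeding with one drug alone or a fixed anchor-drug dose plus five library-drug doses (not always all listed) in √10 steps.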

[2] = tested on: BEN
Procedure, shortened: as §1

[3] = tested on: CAL-12T
Procedure, shortened: as §1

[4] = tested on: HCC-827
Procedure, shortened: as §1

[5] = tested on: HOP-62
Procedure, shortened: as §1

[6] = tested on: LCLC-103H
Procedure, shortened: as §1

[7] = tested on: LCLC-97TM1
Procedure, shortened: as §1

[8] = tested on: LXF-289
Procedure, shortened: as §1

[9] = tested on: NCI-H1355
Procedure, shortened: as §1

[10] = tested on: NCI-H1395
Procedure, shortened: as §1

[11] = tested on: NCI-H1437
Procedure, shortened: as §1

[12] = tested on: NCI-H1650
Procedure, shortened: as §1

[13] = tested on: NCI-H1793
Procedure, shortened: as §1

[14] = tested on: NCI-H2023
Procedure, shortened: as §1

[15] = tested on: NCI-H2087
Procedure, shortened: as §1

[16] = tested on: NCI-H2228
Procedure, shortened: as §1

[17] = tested on: NCI-H2405
Procedure, shortened: as §1

[18] = tested on: NCI-H3122
Procedure, shortened: as §1

[19] = tested on: NCI-H322M
Procedure, shortened: as §1

[20] = tested on: NCI-H647
Procedure, shortened: as §1

[21] = tested on: NCI-H727
Procedure, shortened: as §1

[22] = tested on: RERF-LC-KJ
Procedure, shortened: as §1

[23] = tested on: SK-LU-1
Procedure, shortened: as §1

C[C@@H]1CN(CC(=O)Nc2ccc3c(c2)Cc2cccc(-c4cc(=O)cc(N5CCOCC5)o4)c2S3)C[C@H](C)O1 + Cc1nc(Nc2ncc(C(=O)Nc3c(C)cccc3Cl)s2)cc(N2CCN(CCO)CC2)n1 [Dasatinib] (partner 0.075 µM)
relative viability ([1]; first compound 0.04 µM): 0.624
relative viability ([1]; first compound 0.1265 µM): 0.525
relative viability ([1]; first compound 0.4 µM): 0.581
relative viability ([1]; first compound 4 µM): 0.52
relative viability ([2]; first compound 0.04 µM): 0.308
relative viability ([2]; first compound 0.1265 µM): 0.265
relative viability ([2]; first compound 0.4 µM): 0.333
relative viability ([2]; first compound 4 µM): 0.377
relative viability ([3]; first compound 0.04 µM): 0.515
relative viability ([3]; first compound 0.1265 µM): 0.535
relative viability ([3]; first compound 0.4 µM): 0.429
relative viability ([3]; first compound 4 µM): 0.2
relative viability ([4]; first compound 0.04 µM): 0.396
relative viability ([4]; first compound 0.1265 µM): 0.324
relative viability ([4]; first compound 0.4 µM): 0.344
relative viability ([4]; first compound 4 µM): 0.311
relative viability ([5]; first compound 0.04 µM): 0.664
relative viability ([5]; first compound 0.1265 µM): 0.57
relative viability ([5]; first compound 0.4 µM): 0.687
relative viability ([5]; first compound 4 µM): 0.518
relative viability ([6]; first compound 0.04 µM): 0.451
relative viability ([6]; first compound 0.1265 µM): 0.436
relative viability ([6]; first compound 0.4 µM): 0.405
relative viability ([6]; first compound 4 µM): 0.419
relative viability ([7]; first compound 0.04 µM): 0.839
relative viability ([7]; first compound 0.1265 µM): 0.744
relative viability ([7]; first compound 0.4 µM): 0.794
relative viability ([7]; first compound 4 µM): 0.893
relative viability ([8]; first compound 0.04 µM): 0.185
relative viability ([8]; first compound 0.1265 µM): 0.223
relative viability ([8]; first compound 0.4 µM): 0.203
relative viability ([8]; first compound 4 µM): 0.232
relative viability ([9]; first compound 0.04 µM): 0.639
relative viability ([9]; first compound 0.1265 µM): 0.723
relative viability ([9]; first compound 0.4 µM): 0.604
relative viability ([9]; first compound 4 µM): 0.646
relative viability ([10]; first compound 0.04 µM): 0.396
relative viability ([10]; first compound 0.1265 µM): 0.387
relative viability ([10]; first compound 0.4 µM): 0.366
relative viability ([10]; first compound 4 µM): 0.368
relative viability ([11]; first compound 0.04 µM): 0.334
relative viability ([11]; first compound 0.1265 µM): 0.34
relative viability ([11]; first compound 0.4 µM): 0.387
relative viability ([11]; first compound 4 µM): 0.359
relative viability ([12]; first compound 0.04 µM): 0.31
relative viability ([12]; first compound 0.1265 µM): 0.293
relative viability ([12]; first compound 0.4 µM): 0.301
relative viability ([12]; first compound 4 µM): 0.244
relative viability ([13]; first compound 0.04 µM): 0.403
relative viability ([13]; first compound 0.1265 µM): 0.373
relative viability ([13]; first compound 0.4 µM): 0.414
relative viability ([13]; first compound 4 µM): 0.342
relative viability ([14]; first compound 0.04 µM): 0.638
relative viability ([14]; first compound 0.1265 µM): 0.512
relative viability ([14]; first compound 0.4 µM): 0.415
relative viability ([14]; first compound 4 µM): 0.342
relative viability ([15]; first compound 0.04 µM): 0.971
relative viability ([15]; first compound 0.1265 µM): 0.852
relative viability ([15]; first compound 0.4 µM): 0.894
relative viability ([15]; first compound 4 µM): 0.743
relative viability ([16]; first compound 0.04 µM): 0.595
relative viability ([16]; first compound 0.1265 µM): 0.498
relative viability ([16]; first compound 0.4 µM): 0.423
relative viability ([16]; first compound 4 µM): 0.383
relative viability ([17]; first compound 0.04 µM): 0.226
relative viability ([17]; first compound 0.1265 µM): 0.187
relative viability ([17]; first compound 0.4 µM): 0.229
relative viability ([17]; first compound 4 µM): 0.169
relative viability ([18]; first compound 0.04 µM): 0.797
relative viability ([18]; first compound 0.1265 µM): 0.838
relative viability ([18]; first compound 0.4 µM): 0.827
relative viability ([18]; first compound 4 µM): 0.844
relative viability ([19]; first compound 0.04 µM): 0.277
relative viability ([19]; first compound 0.1265 µM): 0.262
relative viability ([19]; first compound 0.4 µM): 0.26
relative viability ([19]; first compound 4 µM): 0.24
relative viability ([20]; first compound 0.04 µM): 0.236
relative viability ([20]; first compound 0.1265 µM): 0.159
relative viability ([20]; first compound 0.4 µM): 0.161
relative viability ([20]; first compound 4 µM): 0.146
relative viability ([21]; first compound 0.04 µM): 0.361
relative viability ([21]; first compound 0.1265 µM): 0.368
relative viability ([21]; first compound 0.4 µM): 0.378
relative viability ([21]; first compound 4 µM): 0.286
relative viability ([22]; first compound 0.04 µM): 0.877
relative viability ([22]; first compound 0.1265 µM): 0.813
relative viability ([22]; first compound 0.4 µM): 0.782
relative viability ([22]; first compound 4 µM): 0.665
relative viability ([23]; first compound 0.04 µM): 0.206
relative viability ([23]; first compound 0.1265 µM): 0.203
relative viability ([23]; first compound 0.4 µM): 0.171
relative viability ([23]; first compound 4 µM): 0.15
